Measurements from paper PMC6501426 (Clinical Epigenetics, 2019).

What was measured:
Format in all cases: cell-based, human
[1] = test system: methylated UCHL1 promoter EGFP reporter in HCT116 cells; assay: UCHL1 promoter demethylation assay (EGFP expression, FACS) in HCT116; conditions: 5 days, HCT116 with methylated pUCHL1 vector
Description: Human colon cancer HCT116 (ATCC, VA, USA) cells were propagated in McCoy’s 5A medium (Euroclone, Milan, Italy) with 10% fetal bovine serum (FBS; Euroclone), 2 mM L-glutamine (Euroclone), and antibiotics (100 U/mL penicillin, 100 µg/mL streptomycin) (Euroclone). For the treatments with MC3353, 5-AZA, and DAC as positive controls, 2 × 10^4 cells were seeded in 6-well plates in triplicate. Cells were treated every 2 days, and the medium was changed. On day 5, cells were observed under a fluorescent microscope. The nuclei were counterstained with DAPI (10 μg/mL, Invitrogen, Tournai, Belgium).
Fluorescence of EGFP and DAPI in living cells was analyzed by Cytation™ 5 Cell Imaging Multi-Mode Reader (BioTeK, Milan, Italy).
Before the transfection, the pUMLIEP vector was linearized by with ClaI restriction enzyme (New England Biolabs, Milan, Italy) and then it was methylated by SssI-methylase (New England Biolabs, Milan, Italy) for 60 min. The methylated vector was transfected into HCT116 cells using Lipofectamine™2000 (Invitrogen, Monza, Italy) and Opti-MEM® (Gibco, Monza, Italy), and stably introduced clones were selected with puromycin (1.0 μg/mL, Sigma-Aldrich, Milan, Italy). The detailed protocol for the generation of cells highly responsive to DNA demethylating agents is described in [27].
Next, the demethylating activity of MC3353 was evaluated in cells transfected with luciferase and EGFP reporter genes driven by the UCHL1 promoter. The UCHL1 promoter is silenced by methylation in human colon cancer and can be demethylated by specific treatments, inducing expression of Metridia luciferase and EGFP reporter genes. In particular, the pUCHL1 vector, after methylation, was transfected into HCT116 colon cancer cells, and the stable clone was obtained by puromycin selection. Afterwards, cells were treated with 5-AZA (5 μM), with DAC (5 μM), or with MC3353 (0.1 μM) for 5 days. Such a low MC3353 dose was used because of its cytotoxicity at higher concentrations in long treatments.

HCT116 cells = assay: MTT proliferation assay HCT116; conditions: 24 and 48 h; MC3353 from 0.5 μM after 48 h; DAC at 10 μM
Description: (§1) The MTT [3-(4,5-dimethylthiazol-2-yl)-2,5-diphenyltetrazolium bromide] (Sigma-Aldrich, Milan, Italy) assay was used to determine the proliferation of HCT116 clone and DKO HCT116 cells after treatment with MC3353, 5-AZA, and DAC. 5 × 10^4 cells/well for both cell lines were plated in 24-well plate and treated, in duplicate, with compounds at several concentrations for 24 and 48 h of induction. After treatments, MTT solution was added for 3 h at 0.5 mg/mL, the purple formazan crystals were dissolved in DMSO (Sigma-Aldrich, Milan, Italy), and the absorbance was read at a wavelength of 570 nm with reader TECAN M-200.

MMP2 mRNA in PC-3 cells = assay: qPCR of MMP2 in PC-3; conditions: MC3353 0.1 and 1 μM 24 h; 5-AZA, DAC 5 days, also at 0.1 to 1 μM
Description: (§2) RNAs were extracted by ReliaPrep™ RNA Tissue Miniprep (Promega, Madison, WI, USA) and reverse transcribed with PrimeScript RT Master Mix (Takara, Kusatsu, Shiga, Japan). cDNAs were amplified by a qPCR reaction using GoTaq qPCR Master Mix (Promega) and analyzed with the oligonucleotide pairs specific for the target genes. Relative amounts, determined with the 2^(−ΔCt) method, were normalized with respect to the human housekeeping gene L32. The primers used are as follows: L32 (forward: 5′-[…]-3′, reverse: 5′-[…]-3′), E-cadherin (forward: 5′-[…]-3′, reverse: 5′-[…]-3′), and MMP2 (forward: 5′-[…]-3′, reverse: 5′-[…]-3′).
(§3) Prompted by these findings, we investigated the ability of MC3353 to modulate EMT pathway, using 5-AZA and DAC as reference drugs. […] The levels of mRNA transcripts of E-cadherin and matrix metalloproteinase-2 (MMP2) were determined. E-cadherin is involved in the maintenance of the epithelial identity and in the control of tumor invasiveness, whereas MMP2, through degradation of type IV collagen, the most abundant component of the basement membrane, controls an essential step for metastatic progression of most cancers as well as for induction of angiogenesis.

[2] = test system: E-cadherin mRNA in HCT116 cells; assay: qPCR of E-cadherin in HCT116; conditions: MC3353 0.1 μM 24 h; 5-AZA, DAC every 2 days for 5 days at 0.1, 1, 5 μM
Description: as §2, §3

[3] = test system: MMP2 mRNA in HCT116 cells; assay: qPCR of MMP2 in HCT116; conditions: MC3353 0.1 and 1 μM 24 h; 5-AZA, DAC 5 days, also at 0.1 to 1 μM
Description: as §2, §3

[4] = test system: double DNMT knockout (DKO) HCT116 cells; assay: MTT proliferation assay DKO HCT116; conditions: 24 and 48 h; MC3353 at 0.5 μM after 48 h; DAC, 5-AZA up to highest dose
Description: DKO HCT116 (ATCC, VA, USA) cells were propagated in Dulbecco’s modified Eagle medium (DMEM) (Euroclone, Milan, Italy) with 10% fetal bovine serum (FBS; Euroclone, Milan, Italy), 2 mM L-glutamine (Euroclone, Milan, Italy) and antibiotics (100 U/mL penicillin, 100 µg/mL streptomycin) (Euroclone, Milan, Italy).
as §1

[5] = test system: E-cadherin mRNA in PC-3 cells; assay: qPCR of E-cadherin in PC-3; conditions: MC3353 24 h; 5-AZA, DAC 5 days, effect from 1 to 5 μM
Description: as §2, §3

| SMILES | EGFP gene expression induction (FACS) ([1]; 5 μM) [%] | effect on HCT116 proliferation (MTT) (HCT116 cells) | MMP2 mRNA expression, PC-3 (MMP2 mRNA in PC-3 cells) | E-cadherin mRNA expression, HCT116 [2] | MMP2 mRNA expression, HCT116 [3] | effect on DKO HCT116 proliferation (MTT) [4] | E-cadherin mRNA expression, PC-3 [5] | EGFP gene expression induction (FACS) ([1]; 0.1 μM) [%] |
| --- | --- | --- | --- | --- | --- | --- | --- | --- |
| Nc1ncn([C@H]2C[C@H](O)[C@@H](CO)O2)c(=O)n1 [DAC, 5-aza-2′-deoxycytidine, reference compound] | 49.7 | modest proliferation inhibition | increased MMP2 level | able to induce E-cadherin expression | increased MMP2 level | No evidence of cytotoxicity | able to induce E-cadherin expression |  |
| O=C(Nc1ccc(NC(=O)c2ccc(Nc3ccnc4ccccc34)cc2)cc1)OCc1ccccc1 [MC3353, Benzyl (4-(4-(quinolin-4-ylamino)benzamido)phenyl)carbamate] |  | markedly decreased HCT116 proliferation | strongly downregulated | induced E-cadherin mRNA expression transcripts | strongly downregulated | markedly less efficient to impair cell proliferation | this effect was observed only at 1 μM dose | 81.4 |
